The record followed here is patent US20240254129A1, “HETEROCYCLIC COMPOUNDS AND USES THEREOF” (Kumquat Biosciences Inc., priority 2021, published 2024).

Like-named read-outs stand apart in the source and are kept apart here.

Assay [1] concerns the target GST-tagged K-Ras mutant / His-tagged hSOS1 (Homo sapiens, UniProt P01116). The assay can be described thus: HTRF assay, K-Ras mutant / SOS1 interaction. The following applies: read-out: IC50 against mutant Kras. It counts as binding. In short, it runs like this:
(§1)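 Tagged proteins: GST-K-Ras (wt or mutant), His-hSOS1; labels anti-GST-Eu/anti-6His-XL665; HEPES pH 7.4 buffer with DTT, BSA, Igepal. Read ≥10 min post-mix at ex 337 nm; IC50 from ratiometric data, duplicates.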
For orientation: Time-resolved FRET reads energy transfer from a long-lived donor to a nearby acceptor.

For another assay, the target named is T1, wildtype Kras / hSOS1 (Homo sapiens, UniProt P01116).
T1 construct: made in house; host or cells: E. coli BL21 (DE3)
The assay can be described thus: HTRF assay, wildtype Kras / SOS1 interaction. It counts as binding. The following applies: read-out: IC50 against wildtype Kras. In outline: as §1

Where [2] appears, read: compound nos. 102-196, general methodology of example 5.

T1 sequence (P01116 1-188 isoform P01116-2): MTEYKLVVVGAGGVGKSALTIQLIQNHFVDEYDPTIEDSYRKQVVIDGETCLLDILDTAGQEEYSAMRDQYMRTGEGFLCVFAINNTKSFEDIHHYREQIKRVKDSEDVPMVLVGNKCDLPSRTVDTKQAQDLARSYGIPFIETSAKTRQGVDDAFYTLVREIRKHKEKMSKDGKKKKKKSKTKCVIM
GST-tagged K-Ras mutant / His-tagged hSOS1, sequence (P01116 whole entry G12D, form open): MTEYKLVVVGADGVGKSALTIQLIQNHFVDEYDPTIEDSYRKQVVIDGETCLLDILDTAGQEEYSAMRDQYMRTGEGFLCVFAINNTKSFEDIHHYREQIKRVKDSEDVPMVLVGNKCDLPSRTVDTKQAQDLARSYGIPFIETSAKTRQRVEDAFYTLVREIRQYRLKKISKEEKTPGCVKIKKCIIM

As a reminder, the IC50 is the concentration that gives 50% inhibition. For `CN1CCC[C@H]1COc1nc(N2CCNCC(F)(F)C2)c2cc(Cl)c(-c3cccc4nc(O)oc34)c(F)c2n1` [Compound 169, 7-(6-chloro-4-(6,6-difluoro-1,4-diazepan-1-yl)-8-fluoro-2-(((S)-1-methylpyrrolidin-2-yl)methoxy)quinazolin-7-yl)benzo[d]oxazol-2-ol], the IC50 (in assay [1] (setting [2]); on wildtype Kras / hSOS1 (setting [2])) was greater than 500 nM throughout.

Take `Cc1ccc(CN)cc1-c1c(Cl)cc2c(N3CC4CCC(C3)N4)nc(OCC34CCCN3CCC4)nc2c1F` [Compound 469, (3-(4-(3,8-diazabicyclo-[3.2.1]octan-3-yl)-6-chloro-8-fluoro-2-((tetrahydro-1H-pyrrolizin-7a(5H)-yl)meth-oxy)quinazolin-7-yl)-4-methylphenyl)methanamine]: the values for the IC50 (in assay [1] (compound nos. 401-703); on wildtype Kras / hSOS1 (compound nos. 401-703)) were greater than 500 nM and less than 500 nM, respectively.

As for `CN(C)CC1(COc2nc(N3CC4CCC(C3)N4)c3ccc(-c4cccc5cccc(Cl)c45)c(F)c3n2)CC1` [Compound 447, 1-(1-(((4-(3,8-diazabicyclo-[3.2.1]octan-3-yl)-7-(8-chloronaphthalen-1-yl)-8-fluoroquinazolin-2-yl)oxy)-methyl)cyclopropyl)-N,N-dimethylmethanamine], the IC50 is greater than 500 nM in assay [1] (compound nos. 401-703) and less than 500 nM on wildtype Kras / hSOS1 (compound nos. 401-703).

Consider `Nc1cccc(-c2c(Cl)cc3c(N4CCCCCC4)nc(OCC45CCCN4CCC5)nc3c2F)c1F` [Compound 430, 3-(4-(azepan-1-yl)-6-chloro-8-fluoro-2-((tetrahydro-1H-pyrrolizin-7a(5H)-yl)meth-oxy)quinazolin-7-yl)-2-fluoroaniline], for which the IC50 in assay [1] (compound nos. 401-703) is greater than 500 nM; on wildtype Kras / hSOS1 (compound nos. 401-703), less than 500 nM.

For `N#Cc1c(N)sc2c(F)ccc(-c3c(Cl)cc4c(N5CCCOCC5)nc(OC[C@@]56CCCN5C[C@H](F)C6)nc4c3F)c12` [Compound 598, 2-amino-4-(6-chloro-8-fluoro-2-(((2R,7aS)-2-fluorotetrahydro-1H-pyrrol-izin-7a(5H)-yl)methoxy)-4-(1,4-oxazepan-4-yl)quin-azolin-7-yl)-7-fluorobenzo-[b]thiophene-3-carbonitrile], the values for the concentration for half-maximal inhibition (IC50) (in assay [1] (compound nos. 401-703); at wildtype Kras / hSOS1 (compound nos. 401-703)) were less than 500 nM and greater than 500 nM, respectively.

Consider `Nc1nc2cc(-c3c(Cl)cc4c(N5CC6CCC(C5)N6)nc(OCC56CCCN5CCC6)nc4c3F)ccc2o1` [Compound 502, 5-(4-(3,8-diazabicyclo-[3.2.1]octan-3-yl)-6-chloro-8-fluoro-2-((tetrahydro-1H-pyrrolizin-7a(5H)-yl)meth-oxy)quinazolin-7-yl)benzo-[d]oxazol-2-amine], for which the IC50 (in assay [1] (compound nos. 401-703); at wildtype Kras / hSOS1 (compound nos. 401-703)) was greater than 500 nM each time.

On to `Nc1cc(-c2c(Cl)cc3c(N4CC5CCC(C4)N5)nc(OCC45CCCN4CCC5)nc3c2F)c2ccccc2c1` [Compound 564, 4-(4-(3,8-diazabicyclo-[3.2.1]octan-3-yl)-6-chloro-8-fluoro-2-((tetrahydro-1H-pyrrolizin-7a(5H)-yl)meth-oxy)quinazolin-7-yl)naph-thalen-2-amine], for which the IC50 (in assay [1] (compound nos. 401-703); at wildtype Kras / hSOS1 (compound nos. 401-703)) was greater than 500 nM throughout.

With `Nc1nc2c(-c3c(Cl)cc4c(N5CCCS(=O)(=O)CC5)nc(OC[C@@]56CCCN5C[C@H](F)C6)nc4c3F)ccc(F)c2s1` [Compound 477, 4-(7-(2-amino-7-fluoroben-zo-[d]thiazol-4-yl)-6-chloro-8-fluoro-2-(((2R,7aS)-2-fluorotetrahydro-1H-pyrrolizin-7a(5H)-yl)meth-oxy)quinazolin-4-yl)-1,4-thiazepane 1,1-dioxide], the IC50 (in assay [1] (compound nos. 401-703); on wildtype Kras / hSOS1 (compound nos. 401-703)) was less than 500 nM in each case.

On to `Nc1ccc(C2CC2)c(-c2ccc3c(N4CC5CCC(C4)N5)nc(OC[C@@]45CCCN4C[C@H](F)C5)nc3c2F)n1` [Compound 458, 6-(4-(3,8-diazabicyclo-[3.2.1]octan-3-yl)-8-fluoro-2-(((2R,7aS)-2-fluorotetra-hydro-1H-pyrrolizin-7a(5H)-yl)methoxy)quinazolin-7-yl)-5-cyclopropylpyridin-2-amine], for which the IC50 is greater than 500 nM in assay [1] (compound nos. 401-703) and less than 500 nM on wildtype Kras / hSOS1 (compound nos. 401-703).

For the molecule `CCCC1CCCN(c2nc(OC[C@@H]3CCCN3C)nc3c(F)c(-c4cccc5sc(N)nc45)c(Cl)cc23)CC1` (stereo partly drawn) [Compound 646, 4-(6-chloro-8-fluoro-2-(((S)-1-methylpyrrolidin-2-yl)-methoxy)-4-(4-propylaze-pan-1-yl)quinazolin-7-yl)-benzo[d]thiazol-2-amine], the concentration for half-maximal inhibition (IC50) (in assay [1] (compound nos. 401-703); on wildtype Kras / hSOS1 (compound nos. 401-703)) was greater than 500 nM in each case.

Take `Cc1ccc2[nH]nc(N)c2c1-c1ccc2c(N3CC4CCC(C3)N4)nc(OC[C@@]34CCCN3C[C@H](F)C4)nc2c1F` [Compound 703, 4-(4-(3,8-diazabicyclo-[3.2.1]octan-3-yl)-8-fluoro-2-(((2R,7aS)-2-fluorotetra-hydro-1H-pyrrolizin-7a(5H)-yl)methoxy)quinazolin-7-yl)-5-methyl-1H-indazol-3-amine]: the half-inhibitory concentration (IC50) (in assay [1] (compound nos. 401-703); at wildtype Kras / hSOS1 (compound nos. 401-703)) was greater than 500 nM each time.

Consider `Oc1cc(-c2c(Cl)cc3c(N4CC5CCC(C4)N5)nc(OCC45CCCN4CCC5)nc3c2F)cc(C(F)(F)F)c1` [Compound 614, 3-(4-(3,8-diazabicyclo-[3.2.1]octan-3-yl)-6-chloro-8-fluoro-2-((tetrahydro-1H-pyrrolizin-7a(5H)-yl)meth-oxy)quinazolin-7-yl)-5-(trifluoromethyl)phenol], for which the IC50 (in assay [1] (compound nos. 401-703); on wildtype Kras / hSOS1 (compound nos. 401-703)) was greater than 500 nM in each case.

As to `CC(C)CCN1[C@@H]2CC[C@H]1CN(c1nc(OCC34CCCN3CCC4)nc3c(F)c(-c4ccc(F)c5sc(N)nc45)c(Cl)cc13)C2` [Compound 682, 4-(6-chloro-8-fluoro-4-((1R,5S)-8-isopentyl-3,8-diazabicyclo[3.2.1]octan-3-yl)-2-((tetrahydro-1H-pyr-rolizin-7a(5H)-yl)methoxy)-quinazolin-7-yl)-7-fluoro-benzo[d]thiazol-2-amine], the concentration for half-maximal inhibition (IC50) in assay [1] (compound nos. 401-703) was less than 500 nM; at wildtype Kras / hSOS1 (compound nos. 401-703), greater than 500 nM.

On to `Cc1nc(N2CCCCCC2)c2cc(Cl)c(-c3cccc4sc(N)nc34)cc2n1` [Compound 645, 4-(4-(azepan-1-yl)-6-chloro-2-methylquinazolin-7-yl)-benzo[d]thiazol-2-amine], for which the half-inhibitory concentration (IC50) (in assay [1] (compound nos. 401-703); on wildtype Kras / hSOS1 (compound nos. 401-703)) was greater than 500 nM in each case.

`Nc1ccc(-c2ccc(O)cc2-c2c(Cl)cc3c(N4CC5CCC(C4)N5)nc(OCC45CCCN4CCC5)nc3c2F)cc1` [Compound 445, 2-(4-(3,8-diazabicyclo-[3.2.1]octan-3-yl)-6-chloro-8-fluoro-2-((tetrahydro-1H-pyrrolizin-7a(5H)-yl)meth-oxy)quinazolin-7-yl)-4′-amino-[1,1′-biphenyl]-4-ol]: the results for the IC50 (in assay [1] (compound nos. 401-703); at wildtype Kras / hSOS1 (compound nos. 401-703)) were greater than 500 nM and less than 500 nM, respectively.

Consider `Nc1nc2c(-c3cc4c(=O)n(CCN5CCCC5)nc(N5CCCOCC5)c4cc3Cl)ccc(F)c2s1` [Compound 484, 7-(2-amino-7-fluorobenzo-[d]thiazol-4-yl)-6-chloro-4-(1,4-oxazepan-4-yl)-2-(2-(pyrrolidin-1-yl)ethyl)phthal-azin-1(2H)-one], for which the concentration for half-maximal inhibition (IC50) in assay [1] (compound nos. 401-703) was greater than 500 nM; on wildtype Kras / hSOS1 (compound nos. 401-703) it was less than 500 nM.

Take `CN1CCC[C@H]1COc1nc(N2CCCC3(CNC3)C2)c2cc(Cl)c(-c3cccc4sc(N)nc34)c(F)c2n1` [Compound 132, 4-(6-chloro-8-fluoro-2-(((S)-1-methylpyrrolidin-2-yl)-methoxy)-4-(2,6-diazaspiro-[3.5]nonan-6-yl)quinazolin-7-yl)benzo[d]thiazol-2-amine]: the half-maximal inhibitory concentration (IC50) (in assay [1] (setting [2]); at wildtype Kras / hSOS1 (setting [2])) was greater than 500 nM each time.

Take `CN1CCC[C@H]1COc1nc(N2CCNCC(F)(F)C2)c2cc(Cl)c(-c3cccc4sc(N)nc34)c(F)c2n1` [Compound 102, 4-(6-chloro-4-(6,6-difluoro-1,4-diazepan-1-yl)-8-fluoro-2-(((S)-1-methylpyrrolidin-2-yl)methoxy)quinazolin-7-yl)benzo[d]thiazol-2-amine]: the IC50 (in assay [1] (setting [2]); on wildtype Kras / hSOS1 (setting [2])) was less than 500 nM throughout.

In the case of `CN1CCC[C@H]1COc1nc(N2CCNCC(F)(F)C2)c2cc(Cl)c(-c3cccc4oc(C#N)nc34)c(F)c2n1` [Compound 185, 4-(6-chloro-4-(6,6-difluoro-1,4-diazepan-1-yl)-8-fluoro-2-(((S)-1-methylpyrrolidin-2-yl)methoxy)quinazolin-7-yl)benzo[d]oxazole-2-carbonitrile], the IC50 (in assay [1] (setting [2]); at wildtype Kras / hSOS1 (setting [2])) was greater than 500 nM throughout.

Regarding `CC(C)CN1[C@@H]2CC[C@H]1CN(c1nc(OCC34CCCN3CCC4)nc3c(F)c(-c4ccc(F)c5sc(N)nc45)c(Cl)cc13)C2` [Compound 617, 4-(6-chloro-8-fluoro-4-((1R,5S)-8-isobutyl-3,8-diazabicyclo[3.2.1]octan-3-yl)-2-((tetrahydro-1H-pyrrolizin-7a(5H)-yl)meth-oxy)quinazolin-7-yl)-7-fluorobenzo[d]thiazol-2-amine], the values for the IC50 (in assay [1] (compound nos. 401-703); on wildtype Kras / hSOS1 (compound nos. 401-703)) were less than 500 nM and greater than 500 nM, respectively.

Take `N#Cc1n[nH]c2c(F)ccc(-c3c(Cl)cc4c(N5CC6CCC(C5)N6)nc(OC[C@@]56CCCN5C[C@H](F)C6)nc4c3F)c12` [Compound 531, 4-(4-(3,8-diazabicyclo-[3.2.1]octan-3-yl)-6-chloro-8-fluoro-2-(((2R,7aS)-2-fluorotetrahydro-1H-pyrrol-izin-7a(5H)-yl)methoxy)-quin-azolin-7-yl)-7-fluoro-1H-indazole-3-carbonitrile]: the 50% inhibitory concentration (IC50) (in assay [1] (compound nos. 401-703); on wildtype Kras / hSOS1 (compound nos. 401-703)) was greater than 500 nM throughout.
